Consider 64 compounds from patent US12116358B2, “Substituted indoles and methods of use thereof” (EPIZYME, INC., priority 2018, dated 2024).

The first test has as its target T1, SETD2(1434-1711) (Homo sapiens, UniProt Q9BYW2).
T1 construct: SETD2 (1434-1711) Assay; catalogue N/A
T1 sequence (Q9BYW2 1434-1711): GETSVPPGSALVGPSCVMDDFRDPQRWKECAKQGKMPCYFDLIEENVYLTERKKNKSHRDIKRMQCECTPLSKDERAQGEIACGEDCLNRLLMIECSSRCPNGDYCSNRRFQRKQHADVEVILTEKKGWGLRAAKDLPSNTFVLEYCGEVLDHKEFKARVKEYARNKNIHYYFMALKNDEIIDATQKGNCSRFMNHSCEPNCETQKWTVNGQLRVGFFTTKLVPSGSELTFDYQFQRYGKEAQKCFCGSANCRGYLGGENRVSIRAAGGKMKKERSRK
As to the kind of experiment: SETD2 (1434-1711) assay. To be noted: read-out: SETD2 (1434-1711). It counts as biochemical.
As to `COC(=O)CC(NC(=O)c1cc2cccc(C)c2[nH]1)c1ccc(Cl)cc1` (stereo not shown) [compound 764], the IC50 is over 200 µM. As for `Cc1cccc2cc(C(=O)NCc3cocn3)[nH]c12` [compound 733], the IC50 came out at 147 µM. Same read-out and setting: to `Cc1cccc2cc(C(=O)NCc3cccc(CN4CCOCC4)c3)[nH]c12` [compound 709] belongs 78.4 µM; to `COc1ccc(C(O)CNC(=O)c2cc3cccc(C)c3[nH]2)cc1` (stereo not shown) [compound 754], over 200 µM; to `Cc1cccc2cc(C(=O)N(C)[C@H]3CC[C@H](NC(=O)CCN)CC3)[nH]c12` [compound 645], 19.9 µM. In the case of `CCN1CCN([C@@H]2CCC[C@@H](NC(=O)c3cc4c(F)ccc(C)c4[nH]3)C2)CC1=O` [compound 836], the IC50 was 4 µM. On the same count and under the same terms, for `Cc1csc(C(C)NC(=O)c2cc3cccc(C)c3[nH]2)n1` (stereo not shown) [compound 688] the value was 52.1 µM; for `CCc1cccc2cc(C(=O)NC(c3ccccn3)C3CC3)[nH]c12` (stereo not shown) [compound 803], over 200 µM. Consider `CNC1CCCN(C(=O)c2cc3cccc(C)c3[nH]2)C1` (stereo not shown) [compound 800], for which the IC50 is over 200 µM.

As for `COC(=O)C[C@@H](NC(=O)c1cc2cccc(C)c2[nH]1)c1cccnc1` [compound 658], the IC50 was 26.8 µM. The same measure, in the same setting: for `Cc1cccc2cc(C(=O)N[C@H](CO)C(C)C)[nH]c12` [compound 763] the value was over 200 µM. `Cc1cccc2cc(C(=O)Nc3ccccn3)[nH]c12` [compound 673]: the IC50 worked out at 36 µM. With `Cc1cccc2cc(C(=O)N[C@H]3C[C@@H]4CC[C@H]3CN4C(=O)CCCN)[nH]c12` [compound 625], the IC50 worked out at 11 µM. As to `CC(=O)N[C@H]1CC[C@H](NC(=O)c2cc3cccc(C)c3[nH]2)CC1` [compound 698], the IC50 was found to be 63 µM. On to `COC(=O)CC(NC(=O)c1cc2cccc(C)c2[nH]1)c1cccc(Br)c1` (stereo not shown) [compound 669], for which the IC50 came out at 35.2 µM. Take `Cc1noc(C(C)NC(=O)c2cc3cccc(C)c3[nH]2)n1` (stereo not shown) [compound 735]: the IC50 was found to be 165 µM. `Cc1ccc(F)c2cc(C(=O)Nc3cccc(N4C5CCC4CN(C)C5)c3)[nH]c12` [compound 349]: the IC50 came to 0.2 µM.

For `CCOC(=O)N1CCC(NC(=O)c2cc3cccc(C)c3[nH]2)CC1` [compound 628], the IC50 was found to be 13.3 µM. `CCN1CCN(C2CCCC(NC(=O)c3cc4c(F)ccc(C)c4[nH]3)C2)CC1=O` (stereo not shown) [compound 835]: the IC50 turned out to be 0.1 µM. The same measure, in the same setting: for `CC(=O)N1CCC(NC(=O)c2cc3cccc(C)c3[nH]2)CC1` [compound 670] the value was 35.4 µM; for `COC(=O)CC(NC(=O)c1cc2cccc(C)c2[nH]1)c1ccccc1C` (stereo not shown) [compound 677], 39.5 µM; for `Cc1cccnc1C(NC(=O)c1cc2cccc(CC3CCC3)c2[nH]1)C1CC1` (stereo not shown) [compound 821], over 200 µM. As to `Cc1cccc2cc(C(=O)NC(CO)c3ccccc3)[nH]c12` (stereo not shown) [compound 705], the IC50 is 71.6 µM.

On to `Cc1cccc2cc(C(=O)NCc3ccccc3OCC3CC3)[nH]c12` [compound 767], for which the IC50 was over 200 µM. Same read-out and setting: to `Cc1cccc2cc(C(=O)N3CCCc4ccccc4C3)[nH]c12` [compound 718] belongs 103 µM. As to `Cc1cccc2cc(C(=O)N[C@H]3CC[C@@](C)(NC(=O)CCN)CC3)[nH]c12` [compound 641], the IC50 was 18.5 µM. Take `Cc1cccc2cc(C(=O)NCc3ccccc3N3CCNCC3)[nH]c12` [compound 636]: the IC50 is 16.8 µM. For `COC(=O)CC(NC(=O)c1cc2cccc(C)c2[nH]1)c1cccnc1` (stereo not shown) [compound 671], the IC50 was 35.4 µM. Consider `Cc1cccc2cc(C(=O)NC(C)c3ccc(-n4cncn4)cc3)[nH]c12` (stereo not shown) [compound 1155], for which the IC50 turned out to be 17.2 µM. Regarding `Cc1cccc2cc(C(=O)NC3CC4CCC(C3)C4NC(=O)CCN)[nH]c12` (stereo not shown) [compound 640], the IC50 turned out to be 18.5 µM. The same measure, in the same setting: to `Cc1cccc2cc(C(=O)Nc3cc(CN4CCOCC4)ccn3)[nH]c12` [compound 724] belongs 117 µM. As to `Cc1cccc2cc(C(=O)N3CCC4(CCc5ccccc54)C3)[nH]c12` (stereo not shown) [compound 820], the IC50 is over 200 µM. On the same count and under the same terms, to `Cc1cccc2cc(C(=O)N[C@H]3C[C@H]4CC[C@@H]3CN4C(=O)CCN)[nH]c12` [compound 631] belongs 15.3 µM; to `Cc1nc(CNC(=O)c2cc3cccc(C)c3[nH]2)c(C)o1` [compound 721], 113 µM; to `Cc1ccccc1C(NC(=O)c1cc2cccc(C)c2[nH]1)C1CC1` (stereo not shown) [compound 801], over 200 µM. As to `Cc1cccnc1C(CN(C)C)NC(=O)c1cc2cccc(C)c2[nH]1` (stereo not shown) [compound 627], the IC50 was found to be 13.2 µM. Same read-out and setting: to `Cc1cccc2cc(C(=O)N[C@H]3CC[C@@H](CO)CC3)[nH]c12` [compound 662] belongs 29.7 µM; to `Cc1cccc2cc(C(=O)NCc3ccnn3C)[nH]c12` [compound 693], 58.9 µM. The same measure, in the same setting: for `Cc1cccc2cc(C(=O)NCc3cccc(N4CCCCC4)c3)[nH]c12` [compound 750] the value was over 200 µM.

For `Cc1cccc2cc(C(=O)NCCN3CCOCC3)[nH]c12` [compound 746], the IC50 was over 200 µM. On to `Cc1cccc2cc(C(=O)NC(C)c3cccc4ccccc34)[nH]c12` (stereo not shown) [compound 714], for which the IC50 turned out to be 98.9 µM.

For `Cc1cccc2cc(C(=O)NC3(c4cccnc4)CC3)[nH]c12` [compound 643], the IC50 came to 18.6 µM.

With `Cc1cccc2cc(C(=O)NCCc3ccccc3-c3ccccc3CN)[nH]c12` [compound 635], the IC50 came out at 16.5 µM.

The subject of another test is H3K36me3 in A549 cells. As to the kind of experiment: In-Cell Western (ICW) assay of SETD2 inhibitors (A549 assay). It is filed as cell-based, human. The following applies: A549 cells; read-out: SETD2 A549. The method, then:
In-Cell Western (ICW) Assay of SETD2 Inhibitors (A549 Assay)
Representative Compounds of the Disclosure were tested in the A549 assay according the following protocol.
1. Reagents and Consumables:
Prepare plates with compounds. Seed A549 cells to the plates with compounds, 4,000 cells/well, 50 μl/well. Put the plates at room temperature on a non-vibrating surface for 20 minutes before placing in the incubator. Incubate the plate at 37° C. incubator with CO2 for 3 days. Remove plate from incubator and bring to room temperature. Blot media out of the plate and add 50 μL of ice cold 100% methanol. Incubate 30 minutes at room temperature. Remove methanol by aspiration. Wash 3× with PBST. Add 50 μL of Blocking Buffer+0.1% Tween 20. Incubate 1 hour. Remove Blocking Buffer, wash 3× with PBST. Add 20 μL of H3K36me3 (1:1000 dilution). […] Incubate overnight at 4° C. Wash plate 5× with PBS-T. Add 20 μL of DRAQ5 (1:1000) and IRDye 800CW Goat anti-Rabbit IgG (1:500). Incubate for 1 hour in the dark. Wash plate 5× with PBS-T. Wash plate 3× with water. Dry by blotting on paper towel, then centrifuge plate upside down on a thin layer of paper towels for 1 minute at 1000 rpm to remove excess reagent. Leave plate uncovered for ˜10 minutes out of direct light before reading. Read on Licor instrument.
4. Licor Instrument Settings:
Preset: Plate; Resolution: 84 μm; Quality: low; Focus offset: 4.0; 700 channel intensity: 2; and 800 channel intensity: 3.
`Cc1cccnc1C(NC(=O)c1cc2nccc(C)c2[nH]1)C1CC1` (stereo not shown) [compound 599]: the IC50 was over 25 µM. For `CC(=O)N1CCC2C1CCN2C1CCCC(NC(=O)c2cc3c(F)ccc(C)c3[nH]2)C1` (stereo not shown) [compound 1187], the IC50 was over 2 µM. `Cc1cccnc1[C@@H](NC(=O)c1cc2cccc(C)c2[nH]1)C1CC1` [compound 613]: the IC50 was over 25 µM. With `Cc1cccc2cc(C(=O)NCc3ccccc3N3CCCC3)[nH]c12` [compound 528], the IC50 came out at 24.6 µM. `Cc1ccc(F)c2cc(C(=O)N[C@@H]3CCC[C@@H](N4CCN5C(=O)CC[C@@H]5C4)C3)[nH]c12` [compound 921]: the IC50 amounted to 1 µM. As for `Cc1ccc(F)c2cc(C(=O)NC3CCCC(N4CCN5C(=O)CCC5C4)C3)[nH]c12` (stereo not shown) [compound 863], the IC50 turned out to be 0.02 µM. In the case of `Cc1ccc(F)c2cc(C(=O)NC3CCCC(N4CCOCC4)C3)[nH]c12` (stereo not shown) [compound 381], the IC50 is over 2 µM. Take `CC(=O)N1CCC2C1CCN2C1CCCC(NC(=O)c2cc3c(F)ccc(C)c3[nH]2)C1` (stereo not shown) [compound 1184]: the IC50 was 0.005 µM.

On to `Cc1ccc(F)c2cc(C(=O)N[C@@H]3CCC[C@@H](N4CCN5C(=O)CCC5C4)C3)[nH]c12` (stereo partly shown) [compound 864], for which the IC50 is 1.2 µM.

With `CC(=O)N(C)[C@@H]1CCN([C@@H]2CCC[C@@H](NC(=O)c3cc4c(F)ccc(C)c4[nH]3)C2)C1` [compound 849], the IC50 is over 2 µM.

The test is the same for the next values; noted with them: Homo sapiens, A549, read-out: SETD2 A549.
As to `Cc1cccnc1C(NC(=O)c1cc2cccc(C)c2[nH]1)C1CC1` (stereo not shown) [compound 475], the IC50 came out at 8.9 µM.

With `Cc1ccc(F)c2cc(C(=O)N[C@@H]3CCC[C@H](N4CCN(C)C(=O)C4)C3)[nH]c12` [compound 169], the IC50 came to 0.3 µM. Take `Cc1cccc2cc(C(=O)N[C@H]3CC[C@@H](NC(=O)CCN)CC3)[nH]c12` [compound 592]: the IC50 is over 25 µM. As for `Cc1ccc(F)c2cc(C(=O)N[C@@H]3CCC[C@H](c4ccncc4)C3)[nH]c12` [compound 913], the IC50 is over 2 µM. The same measure, in the same setting: to `Cc1ccc(F)c2cc(C(=O)N[C@H]3CCC[C@@H](c4ccncc4)C3)[nH]c12` [compound 914] belongs 0.3 µM; to `Cc1ccc(F)c2cc(C(=O)N[C@@H]3CCC[C@@H](c4ccncc4)C3)[nH]c12` [compound 912], over 2 µM; to `Cc1ccc(F)c2cc(C(=O)N[C@H]3CCC[C@H](c4ccncc4)C3)[nH]c12` [compound 915], over 2 µM. Regarding `Cc1cccnc1C(NC(=O)c1cc2cc(F)cc(C)c2[nH]1)C1CC1` (stereo not shown) [compound 497], the IC50 amounted to 13.8 µM. `CC(=O)N(C)C1CCN([C@@H]2CCC[C@@H](NC(=O)c3cc4c(F)ccc(C)c4[nH]3)C2)C1` (stereo partly shown) [compound 385]: the IC50 is over 2 µM. On the same count and under the same terms, to `CC(=O)N(C)[C@H]1CCN([C@@H]2CCC[C@@H](NC(=O)c3cc4c(F)ccc(C)c4[nH]3)C2)C1` [compound 842] belongs over 2 µM.

The same test, now with this note: Homo sapiens; A549 cells; read-out: SETD2 A549.
`CCc1ccc(C)c2[nH]c(C(=O)NC(CCC(=O)N3CCOCC3)c3ncccc3C)cc12` (stereo not shown) [compound 485]: the IC50 amounted to 10.8 µM.
